Test results as given in patent US7205317B2, “4[piperidin-4-yliden-(3-carbamoylpheny)methyl]benzamide derivatives and their use for the treatment of pain spinal injuries or gastrointestinal disorders” (AstraZeneca AB, priority 2001, dated 2007).

Tests used:
[1] = biological target: T1, cloned human δ receptor (HDELTA) (Homo sapiens, UniProt P41143); assay: Binding assay, displacement of radioligand on membranes of 293S cells expressing cloned human δ receptor; conditions: 293S cell membranes
T1 construct: expressed in transfected cells; host or cells: human 293S (HEK-293S) cells, geneticin-selected
T1 sequence (P41143 whole entry): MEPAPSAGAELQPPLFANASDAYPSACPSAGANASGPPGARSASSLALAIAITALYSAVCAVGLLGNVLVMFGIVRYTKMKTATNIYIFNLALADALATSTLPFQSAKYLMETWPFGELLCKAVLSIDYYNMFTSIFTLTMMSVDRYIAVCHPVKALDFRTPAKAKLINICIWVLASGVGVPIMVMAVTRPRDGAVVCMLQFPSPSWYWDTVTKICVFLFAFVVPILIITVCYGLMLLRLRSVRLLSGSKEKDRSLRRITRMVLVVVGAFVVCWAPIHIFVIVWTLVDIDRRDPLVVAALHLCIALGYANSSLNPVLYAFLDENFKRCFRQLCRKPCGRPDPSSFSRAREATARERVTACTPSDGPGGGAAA

[2] = biological target: T2, delta receptors, rat brain membranes (Rattus norvegicus, UniProt P33533); assay: GTP[γ]35S binding functional assay, homogenised rat brain; type: biochemical
T2 construct: from tissue; host or cells: rat brain homogenate
T2 sequence (P33533 whole entry): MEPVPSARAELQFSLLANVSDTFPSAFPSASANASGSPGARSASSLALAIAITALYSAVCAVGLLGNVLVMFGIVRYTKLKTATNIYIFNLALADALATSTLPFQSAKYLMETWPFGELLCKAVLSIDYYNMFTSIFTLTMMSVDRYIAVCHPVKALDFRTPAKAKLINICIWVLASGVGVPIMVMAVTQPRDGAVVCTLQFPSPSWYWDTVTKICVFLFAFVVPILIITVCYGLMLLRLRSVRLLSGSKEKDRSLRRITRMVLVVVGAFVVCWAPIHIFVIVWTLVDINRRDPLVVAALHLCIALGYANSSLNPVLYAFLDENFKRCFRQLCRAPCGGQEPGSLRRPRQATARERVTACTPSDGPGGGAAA
Description: (§1) • A. Human 293S cells expressing cloned human μ, δ, and κ receptors and neomycin resistance were grown in suspension at 37° C. and 5% CO2 in shaker flasks containing calcium-free DMEM 10% FBS, 5% BCS, 0.1% Pluronic F-68, and 600 μg/ml geneticin. • B. Mouse and rat brains were weighed and rinsed in ice-cold PBS (containing 2.5 mM EDTA, pH 7.4). The brains were homogenized with a polytron for 15 sec (mouse) or 30 sec (rat) in ice-cold lysis buffer (50 mM Tris, pH 7.0, 2.5 mM EDTA, with phenylmethylsulfonyl fluoride added just prior use to […] from a 0.5M stock in DMSO:ethanol). Membrane Preparation
(§2) The agonist activity of the compounds is measured by determining the degree to which the compounds receptor complex activates the binding of GTP to G-proteins to which the receptors are coupled. In the GTP binding assay, GTP[γ]^35S is combined with test compounds and membranes from HEK-293S cells expressing the cloned human opioid receptors or from homogenised rat and mouse brain. Agonists stimulate GTP[γ]^35S binding in these membranes. The EC50 and Emax values of compounds are determined from dose-response curves. Right shifts of the dose response curve by the delta antagonist naltrindole are performed to verify that agonist activity is mediated through delta receptors.

[3] = biological target: T1, cloned human δ receptor (HDELTA); assay: GTP[γ]35S binding functional assay, membranes from HEK-293S cells expressing cloned human opioid receptors; type: biochemical
Description: as §1
Cells were pelleted and resuspended in lysis buffer (50 mM Tris, pH 7.0, 2.5 mM EDTA, with PMSF added just prior to use to 0.1 mM from a 0.1 M stock in ethanol), incubated on ice for 15 min, then homogenized with a polytron for 30 sec. The suspension was spun at 1000 g (max) for 10 min at 4° C. The supernatant was saved on ice and the pellets resuspended and spun as before. The supernatants from both spins were combined and spun at 46,000 g (max) for 30 min. The pellets were resuspended in cold Tris buffer (50 mM Tris/Cl, pH 7.0) and spun again. The final pellets were resuspended in membrane buffer (50 mM Tris, 0.32 M sucrose, pH 7.0). Aliquots (1 ml) in polypropylene tubes were frozen in dry ice/ethanol and stored at −70° C. until use. The protein concentrations were determined by a modified Lowry assay with sodium dodecyl sulfate.
as §2

[4] = biological target: T3, delta receptors, mouse brain membranes (Mus musculus, UniProt P32300); assay: GTP[γ]35S binding functional assay, homogenised mouse brain; type: biochemical
T3 construct: from tissue; host or cells: mouse brain homogenate
T3 sequence (P32300 whole entry): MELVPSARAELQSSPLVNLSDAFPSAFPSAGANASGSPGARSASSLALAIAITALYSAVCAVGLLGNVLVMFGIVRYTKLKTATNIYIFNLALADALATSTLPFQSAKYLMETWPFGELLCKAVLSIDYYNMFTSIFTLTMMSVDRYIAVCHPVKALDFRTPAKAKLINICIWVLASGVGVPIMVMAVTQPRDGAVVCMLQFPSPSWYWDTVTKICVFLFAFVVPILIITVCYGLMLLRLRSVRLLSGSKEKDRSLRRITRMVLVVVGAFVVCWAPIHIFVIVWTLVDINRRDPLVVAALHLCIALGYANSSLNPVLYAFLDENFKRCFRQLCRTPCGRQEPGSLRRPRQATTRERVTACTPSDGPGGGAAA
Description: as §1, §2

SMILES | IC50 [1] [nM] | EC50 [2] [nM] | Emax [2] [%] | EC50 [3] [nM] | Emax [3] [%] | EC50 [4] [nM] | Emax [4] [%]
CCN(CC)C(=O)c1ccc(C(=C2CCN(Cc3ccco3)CC2)c2cccc(C(N)=O)c2)cc1 [5b] | 0.282 | 0.633 | 149 |  |  |  | 
CCN(CC)C(=O)c1ccc(C(=C2CCN(Cc3ccoc3)CC2)c2cccc(C(N)=O)c2)cc1 [5c] | 0.246 | 0.367 | 170 |  |  |  | 
CCN(CC)C(=O)c1ccc(C(=C2CCN(Cc3ccsc3)CC2)c2cccc(C(N)=O)c2)cc1 [5e, N,N-Diethyl-4-[1-(3-thiophene)methyl-piperidin-4-ylidene-(3-carbamoylphenyl)-methyl]-benzamide] | 0.235 |  |  |  |  |  | 
CCN(CC)C(=O)c1ccc(C(=C2CCN(Cc3ccccc3)CC2)c2cccc(C(N)=O)c2)cc1 [3b, N,N-Diethyl-4-[1-benzylpiperidin-4-ylidene(3-carbamoylphenyl)-methyl]-benzamide] | 0.548 | 0.403 | 179 | 0.091 | 93.8 | 0.539 | 165
CCN(CC)C(=O)c1ccc(C(=C2CCN(Cc3cccs3)CC2)c2cccc(C(N)=O)c2)cc1 [5a] | 0.373 | 0.613 | 181 | 0.158 | 98.1 | 0.818 | 170
CCN(CC)C(=O)c1ccc(C(=C2CCN(Cc3ccccn3)CC2)c2cccc(C(N)=O)c2)cc1 [5d, N,N-Diethyl-4-[1-(2-pyridine)methyl-piperidin-4-ylidene-(3-carbamoylphenyl)-methyl]-benzamide] | 0.278 | 0.396 | 180 |  |  |  | 
